Experimental data reported in patent US7105664B2, “5-Halogen-6-phenyl-7-fluoroalkylamino-triazolopyrimidines as fungicides” (BASF Aktiengesellschaft, priority 2001, dated 2006).

test system: Blumeria graminis f. sp. tritici; assay: Control of powdery mildew on wheat, Comparison Trial 2; type: in vivo; settings: 50 ppm, wheat variety Kanzler; untreated plants infected to 100%

Compared with COc1cc(F)c(-c2c(Cl)nc3ncnn3c2NCC(F)(F)F)c(F)c1 [D], COc1cc(F)c(-c2c(Cl)nc3ncnn3c2NCCC(F)(F)F)c(F)c1 [I-7] is lower in “infection (% diseased leaf area)” value: 80% for the first, 7% for the second.

For COc1cc(F)c(-c2c(Cl)nc3ncnn3c2NC(C)C(F)(F)F)c(F)c1 (stereo not drawn) [E], the “infection (% diseased leaf area)” value was 80%.

same assay, conditions: 200 ppm, wheat variety Kanzler; untreated plants infected to 100%

Compared with COc1cc(F)c(-c2c(Cl)nc3ncnn3c2NCC(F)(F)F)c(F)c1 [D], COc1cc(F)c(-c2c(Cl)nc3ncnn3c2NCCC(F)(F)F)c(F)c1 [I-7] is lower in “infection (% diseased leaf area)” value: 60% for the first, 3% for the second.

For COc1cc(F)c(-c2c(Cl)nc3ncnn3c2NC(C)C(F)(F)F)c(F)c1 (stereo not drawn) [E], the “infection (% diseased leaf area)” value was 80%.

test system: Pyricularia oryzae; assay: not given; type: in vivo; settings: 200 ppm, rice seedlings variety Tai-Nong 67, protective; untreated plants infected to 90%

Compared with FC(F)=C(F)CCNc1c(-c2c(F)cc(F)cc2F)c(Cl)nc2ncnn12 [I-2], Fc1cc(F)c(-c2c(Cl)nc3ncnn3c2NCC(F)(F)F)c(F)c1 [A] is higher in “infection (% diseased leaf area)” value: 3% for the first, 60% for the second.

Compared with CC(Nc1c(-c2c(F)cccc2F)c(Cl)nc2ncnn12)C(F)(F)F (stereo not drawn) [C], Fc1cccc(Cl)c1-c1c(Cl)nc2ncnn2c1NCC(F)(F)F [B] is lower in “infection (% diseased leaf area)” value: 20% for the first, 10% for the second.

CC(CNc1c(-c2c(F)cc(F)cc2F)c(Cl)nc2ncnn12)CC(F)(F)F (stereo not drawn) [I-3] and Fc1cc(F)c(-c2c(Cl)nc3ncnn3c2NCC(F)C(F)(F)F)c(F)c1 (stereo not drawn) [I-1] are the same in “infection (% diseased leaf area)” value: 3% for the first, 3% for the second.
